Assays:
Experiment in all cases: relative viability (nuclei count vs DMSO), 5 days (fraction); higher = more cells survive
GSK126 + Tozasertib = compound: CC[C@H](C)N1C=C(C2=C(C=C(C=C21)C3=CN=C(C=C3)N4CCNCC4)C(=O)NCC5=C(C=C(NC5=O)C)C)C [GSK126] + Cc1cc(Nc2cc(N3CCN(C)CC3)nc(Sc3ccc(NC(=O)C4CC4)cc3)n2)n[nH]1 [Tozasertib] (partner 0.1 µM)
Method in brief: (§1)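 Lung cancer cell lines in 1536-well plates got either a single drug or a fixed anchor-drug dose together with five library-drug doses (not always all listed) in √10 steps, by pin tool, on the day after seeding. Nuclei were counted after 5 days, and relative viability is the treated-to-vehicle ratio of nuclei counts. Values are medians of duplicate plates.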

MLN4924 + Decitabine = compound: NS(=O)(=O)OC[C@@H]1C[C@@H](n2ccc3c(N[C@H]4CCc5ccccc54)ncnc32)C[C@@H]1O [MLN4924] + Nc1ncn([C@H]2C[C@H](O)[C@@H](CO)O2)c(=O)n1 [Decitabine] (partner 2 µM)
Method in brief: as §1

MLN4924 + Alpelisib = compound: NS(=O)(=O)OC[C@@H]1C[C@@H](n2ccc3c(N[C@H]4CCc5ccccc54)ncnc32)C[C@@H]1O [MLN4924] + Cc1nc(NC(=O)N2CCC[C@H]2C(N)=O)sc1-c1ccnc(C(C)(C)C(F)(F)F)c1 [Alpelisib] (partner 2 µM)
Method in brief: as §1

MLN4924 + Palbociclib = compound: NS(=O)(=O)OC[C@@H]1C[C@@H](n2ccc3c(N[C@H]4CCc5ccccc54)ncnc32)C[C@@H]1O [MLN4924] + CC(=O)c1c(C)c2cnc(Nc3ccc(N4CCNCC4)cn3)nc2n(C2CCCC2)c1=O [Palbociclib] (partner 0.5 µM)
Method in brief: as §1

Cell Line | relative viability (GSK126 + Tozasertib; first compound 0.08 µM) | relative viability (GSK126 + Tozasertib; first compound 0.253 µM) | relative viability (GSK126 + Tozasertib; first compound 0.8 µM) | relative viability (GSK126 + Tozasertib; first compound 2.53 µM) | relative viability (GSK126 + Tozasertib; first compound 8 µM) | relative viability (MLN4924 + Decitabine; first compound 0.04 µM) | relative viability (MLN4924 + Decitabine; first compound 0.1265 µM) | relative viability (MLN4924 + Decitabine; first compound 0.4 µM) | relative viability (MLN4924 + Decitabine; first compound 1.265 µM) | relative viability (MLN4924 + Decitabine; first compound 4 µM) | relative viability (MLN4924 + Alpelisib; first compound 0.04 µM) | relative viability (MLN4924 + Alpelisib; first compound 0.1265 µM) | relative viability (MLN4924 + Alpelisib; first compound 0.4 µM) | relative viability (MLN4924 + Alpelisib; first compound 1.265 µM) | relative viability (MLN4924 + Alpelisib; first compound 4 µM) | relative viability (MLN4924 + Palbociclib; first compound 0.04 µM) | relative viability (MLN4924 + Palbociclib; first compound 0.1265 µM) | relative viability (MLN4924 + Palbociclib; first compound 0.4 µM) | relative viability (MLN4924 + Palbociclib; first compound 1.265 µM) | relative viability (MLN4924 + Palbociclib; first compound 4 µM)
LU99A | 0.259 | 0.268 | 0.26 | 0.198 | 0.21 | 0.595 | 0.298 | 0.341 | 0.176 | 0.14 | 0.418 | 0.244 | 0.299 | 0.173 | 0.153 | 0.414 | 0.333 | 0.318 | 0.163 | 0.125
NCI-H1299 | – | – | – | – | – | – | – | – | – | – | 1.03 | 1.07 | 0.71 | 0.333 | 0.263 | – | – | – | – | –
NCI-H1355 | 0.573 | 0.495 | 0.546 | 0.533 | 0.378 | 0.367 | 0.307 | 0.321 | 0.215 | 0.184 | 0.831 | 0.865 | 0.776 | 0.35 | 0.152 | 0.418 | 0.409 | 0.445 | 0.234 | 0.195
HCC-15 | 0.374 | 0.329 | 0.43 | 0.204 | 0.158 | 0.322 | 0.217 | 0.17 | 0.0917 | 0.111 | 0.537 | 0.23 | 0.163 | 0.0818 | 0.0862 | 0.477 | 0.172 | 0.196 | 0.0952 | 0.101
LXF-289 | 0.162 | 0.149 | 0.218 | 0.176 | 0.181 | 0.346 | 0.323 | 0.28 | 0.183 | 0.133 | 0.814 | 0.715 | 0.452 | 0.231 | 0.142 | 0.568 | 0.458 | 0.472 | 0.194 | 0.112
201T | 0.893 | 1.05 | 0.944 | 0.944 | 0.836 | 0.88 | 0.653 | 0.582 | 0.368 | 0.293 | 1.24 | 1.11 | 1.17 | 0.344 | 0.392 | 0.395 | 0.353 | 0.354 | 0.219 | 0.26
HOP-62 | 0.314 | 0.397 | 0.427 | 0.261 | 0.308 | 0.195 | 0.201 | 0.0844 | 0.0618 | 0.0785 | 0.903 | 0.627 | 0.29 | 0.0619 | 0.0676 | 0.367 | 0.185 | 0.0998 | 0.0286 | 0.0302
NCI-H1703 | – | – | – | – | – | – | – | – | – | – | 0.22 | 0.177 | 0.189 | 0.135 | 0.121 | – | – | – | – | –
NCI-H1975 | 0.833 | 0.69 | 0.762 | 0.648 | 0.48 | 0.413 | 0.429 | 0.309 | 0.237 | 0.201 | 0.694 | 1.11 | 1.26 | 0.339 | 0.21 | 0.549 | 0.696 | 0.707 | 0.557 | 0.231
NCI-H2023 | 0.387 | 0.342 | 0.339 | 0.266 | 0.184 | 0.177 | 0.178 | 0.119 | 0.0603 | 0.062 | 0.731 | 0.528 | 0.224 | 0.0584 | 0.0729 | 0.496 | 0.366 | 0.207 | 0.0822 | 0.0604
EBC-1 | – | – | – | – | – | – | – | – | – | – | 0.78 | 0.768 | 0.276 | 0.132 | 0.151 | – | – | – | – | –
COR-L23 | 0.206 | 0.228 | 0.208 | 0.168 | 0.175 | 0.465 | 0.431 | 0.321 | 0.156 | 0.138 | 0.722 | 0.689 | 0.561 | 0.159 | 0.116 | 0.267 | 0.3 | 0.215 | 0.0984 | 0.105
NCI-H1793 | 0.324 | 0.331 | 0.422 | 0.475 | 0.363 | 0.49 | 0.463 | 0.482 | 0.318 | 0.195 | 0.804 | 0.801 | 0.732 | 0.513 | 0.276 | 0.338 | 0.295 | 0.442 | 0.265 | 0.214
A549 | – | – | – | – | – | 0.213 | 0.189 | 0.112 | 0.0579 | 0.0418 | 0.657 | 0.748 | 0.61 | 0.05 | 0.05 | – | – | – | – | –
CAL-12T | 0.324 | 0.358 | 0.301 | 0.189 | 0.184 | – | – | – | – | – | 1.09 | 1.18 | 0.39 | 0.529 | 0.191 | 0.403 | 0.254 | 0.161 | 0.122 | 0.182
NCI-H1993 | 0.586 | 0.639 | 0.585 | 0.659 | 0.649 | 0.666 | 0.523 | 0.451 | 0.424 | 0.422 | 0.808 | 0.555 | 0.596 | 0.569 | 0.541 | 0.792 | 0.428 | 0.422 | 0.362 | 0.377

From the supplement of paper PMC10307832
